Columns and labels:
mu-opioid receptor [1] = target: T1, mu-opioid receptor (Homo sapiens, UniProt P35372); test: cell-based; settings: read-out: BArr Activity
Target sequence in this assay (P35372 whole entry, species assumed): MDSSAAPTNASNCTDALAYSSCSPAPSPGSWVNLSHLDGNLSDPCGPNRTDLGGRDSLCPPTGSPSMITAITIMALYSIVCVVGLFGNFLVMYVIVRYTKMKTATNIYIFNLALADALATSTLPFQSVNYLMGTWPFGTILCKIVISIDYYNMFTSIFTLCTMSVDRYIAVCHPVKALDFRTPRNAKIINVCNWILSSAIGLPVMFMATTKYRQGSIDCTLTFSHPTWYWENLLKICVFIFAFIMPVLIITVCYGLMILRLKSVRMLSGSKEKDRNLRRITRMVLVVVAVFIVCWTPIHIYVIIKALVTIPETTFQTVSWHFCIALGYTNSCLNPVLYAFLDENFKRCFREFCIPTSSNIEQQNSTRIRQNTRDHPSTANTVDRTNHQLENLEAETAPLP
Target sequence in this assay (P32121 whole entry partner, species assumed): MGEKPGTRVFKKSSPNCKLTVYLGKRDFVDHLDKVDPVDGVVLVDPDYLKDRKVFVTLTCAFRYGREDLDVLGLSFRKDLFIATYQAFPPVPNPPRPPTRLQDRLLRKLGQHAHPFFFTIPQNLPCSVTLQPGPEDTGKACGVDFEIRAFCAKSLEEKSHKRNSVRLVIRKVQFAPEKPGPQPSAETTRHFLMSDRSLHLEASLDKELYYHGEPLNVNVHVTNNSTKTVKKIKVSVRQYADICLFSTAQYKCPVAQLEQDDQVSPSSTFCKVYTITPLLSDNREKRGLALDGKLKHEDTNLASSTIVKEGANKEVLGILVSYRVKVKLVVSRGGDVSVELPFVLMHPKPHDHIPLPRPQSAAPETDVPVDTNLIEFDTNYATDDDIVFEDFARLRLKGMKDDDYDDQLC

mu-opioid receptor [2] = target: T1, mu-opioid receptor; test: biochemical; settings: read-out: GTP Activity
Target sequence in this assay (P35372 whole entry, species assumed): as the sequence (P35372 whole entry, species assumed) above

[3] = […], class symbol combines EC50 and efficacy

| SMILES | EC50 (mu-opioid receptor [1]; [3]) [nM] | EC50 (mu-opioid receptor [2]; [3]) [nM] | EC50 (mu-opioid receptor [1]; class symbols) [nM] | EC50 (mu-opioid receptor [2]; class symbols) [nM] |
| --- | --- | --- | --- | --- |
| CNC1=C(c2nc3ccccc3[nH]2)C(=O)C(CCOC)N1c1cc(OC)cc(OC)c1 (centres unmarked) [compound 218] | < 10000 | < 100 | – | – |
| COc1cc(OC)cc(N2C(N)=C(c3nc4ccccc4[nH]3)C(=O)[C@@H]2CCO)c1 [compound 242] | < 10000 | < 100 | – | – |
| CCNC1=C(c2nc3ccccc3[nH]2)C(=O)C(C)(C)N1c1cc(OC)cc(OC)c1 [compound 89] | – | – | < 10000 | < 100 |
| CNC1=C(c2nc3ccccc3[nH]2)C(=O)C(CCNC(C)=O)N1c1cc(OC)cc(OC)c1 (centres unmarked) [compound 254] | < 10000 | < 100 | – | – |
| COc1cc(OC)cc(N2C(N)=C(c3nc4ccccc4[nH]3)C(=O)C2C)c1 (centres unmarked) [compound 1] | – | – | < 10000 | 100 to 1000 |
| COc1cc(OC)cc(N2C(N)=C(c3nc4ccccc4[nH]3)C(=O)C23CCOC3)c1 (centres unmarked) [compound 181] | – | – | < 10000 | 100 to 1000 |
| CNC1=C(c2nc3ccccc3[nH]2)C(=O)C(C)(CNC(C)=O)N1c1cc(OC)cc(OC)c1 (centres unmarked) [compound 281] | < 10000 | < 100 | – | – |
| CNC1=C(c2nc3ccccc3[nH]2)C(=O)[C@]2(CCCOC2)N1c1cc(OC)cc(OC)c1 [compound 305] | < 10000 | < 100 | – | – |
| COc1cc(OC)cc(N2C(N)=C(c3nc4ccccc4[nH]3)C(=O)C2CCO)c1 (centres unmarked) [compound 203] | < 10000 | < 100 | – | – |
| CNC1=C(c2nc3ccccc3[nH]2)C(=O)C2(CCOC2)N1c1cc(OC)cc(OC)c1 (centres unmarked) [compound 208] | < 10000 | < 100 | – | – |
| CNC1=C(c2nc3ccccc3[nH]2)C(=O)C(C)N1c1cc(OC)cc(OC)c1 (centres unmarked) [compound 121] | – | – | < 10000 | < 100 |
| CCC(=O)NCC1(C)C(=O)C(c2nc3ccccc3[nH]2)=C(NC)N1c1cc(OC)cc(OC)c1 (centres unmarked) [compound 282] | < 10000 | < 100 | – | – |
| CNC1=C(c2nc3ccccc3[nH]2)C(=O)C(CCNC(=O)c2ccccc2)N1c1cc(OC)cc(OC)c1 (centres unmarked) [compound 255] | < 10000 | < 100 | – | – |
| CNC1=C(c2nc3ccccc3[nH]2)C(=O)[C@](C)(CCNC(C)=O)N1c1cc(OC)cc(OC)c1 [compound 303] | < 10000 | < 100 | – | – |
| CNC1=C(c2nc3ccccc3[nH]2)C(=O)C2(CCCOC2)N1c1cc(OC)cc(OC)c1 (centres unmarked) [compound 272] | < 10000 | < 100 | – | – |
| CCC(=O)NCCC1C(=O)C(c2nc3ccccc3[nH]2)=C(N)N1c1cc(OC)cc(OC)c1 (centres unmarked) [compound 235] | < 10000 | < 100 | – | – |
| CNC1=C(c2nc3ccccc3[nH]2)C(=O)[C@@]2(CCOC2)N1c1cc(OC)cc(OC)c1 [compound 214] | < 10000 | < 100 | – | – |
| CNC1=C(c2nc3ccccc3[nH]2)C(=O)[C@@H](C)N1c1cc(OC)cc(OC)c1 [compound 136] | – | – | < 10000 | < 100 |
| COc1cc(OC)cc(N2C(N)=C(c3nc4ccccc4[nH]3)C(=O)C23CCCC3)c1 [compound 180] | – | – | < 10000 | 100 to 1000 |
| CNC1=C(c2nc3ccccc3[nH]2)C(=O)C(CNC(C)=O)N1c1cc(OC)cc(OC)c1 (centres unmarked) [compound 287] | < 10000 | < 100 | – | – |
| CCC1C(=O)C(c2nc3ccccc3[nH]2)=C(NC)N1c1cc(OC)cc(OC)c1 (centres unmarked) [compound 153] | – | – | < 10000 | < 100 |
| CNC1=C(c2nc3ccccc3[nH]2)C(=O)C(CC(C)O)N1c1cc(OC)cc(OC)c1 (centres unmarked) [compound 310] | < 10000 | < 100 | – | – |
| CNC1=C(c2nc3ccccc3[nH]2)C(=O)CN1c1cc(OC)cc(OC)c1 [compound 58] | – | – | < 10000 | 100 to 1000 |

| SMILES | EC50 (mu-opioid receptor [1]; [3]) [nM] | EC50 (mu-opioid receptor [2]; [3]) [nM] | EC50 (mu-opioid receptor [1]; class symbols) [nM] | EC50 (mu-opioid receptor [2]; class symbols) [nM] |
| --- | --- | --- | --- | --- |
| CNC1=C(c2nc3ccccc3[nH]2)C(=O)[C@H](C)N1c1cc(OC)cc(OC)c1 [compound 137] | – | – | < 10000 | 100 to 1000 |
| COc1cc(OC)cc(N2C(N)=C(c3nc4ccccc4[nH]3)C(=O)[C@H]2C)c1 [compound 82] | – | – | < 10000 | < 100 |
| CNC1=C(c2nc3ccccc3[nH]2)C(=O)C2(CCCC2)N1c1cc(OC)cc(OC)c1 [compound 188] | – | – | < 10000 | < 100 |
| COc1cc(OC)cc(N2C(N)=C(c3nc4ccccc4[nH]3)C(=O)C2C(C)C)c1 (centres unmarked) [compound 55] | – | – | < 10000 | 100 to 1000 |
| CNC1=C(c2nc3ccccc3[nH]2)C(=O)C(CCO)N1c1cc(OC)cc(OC)c1 (centres unmarked) [compound 215] | < 10000 | < 100 | – | – |
| COc1cc(OC)cc(N2C(N)=C(c3nc4ccccc4[nH]3)C(=O)[C@@H]2C(C)C)c1 [compound 98] | – | – | < 10000 | < 100 |
| CC[C@H]1C(=O)C(c2nc3ccccc3[nH]2)=C(NC)N1c1cc(OC)cc(OC)c1 [compound 185] | – | – | < 10000 | < 100 |
| CCC1C(=O)C(c2nc3ccccc3[nH]2)=C(N)N1c1cc(OC)cc(OC)c1 (centres unmarked) [compound 54] | – | – | < 10000 | 100 to 1000 |
| CCNC1=C(c2nc3ccccc3[nH]2)C(=O)[C@H](CC)N1c1cc(OC)cc(OC)c1 [compound 187] | – | – | < 10000 | < 100 |
| CNC1=C(c2nc3ccccc3[nH]2)C(=O)[C@](C)(CNC(C)=O)N1c1cc(OC)cc(OC)c1 [compound 307] | < 10000 | 100 to 1000 | – | – |
| CCC(=O)NCCC1(C)C(=O)C(c2nc3ccccc3[nH]2)=C(NC)N1c1cc(OC)cc(OC)c1 (centres unmarked) [compound 285] | < 10000 | < 100 | – | – |
| CNC1=C(c2nc3ccccc3[nH]2)C(=O)C2(CCC2)N1c1cc(OC)cc(OC)c1 [compound 109] | – | – | < 10000 | < 100 |
| CCC(=O)NCC1C(=O)C(c2nc3ccccc3[nH]2)=C(NC)N1c1cc(OC)cc(OC)c1 (centres unmarked) [compound 288] | < 10000 | < 100 | – | – |
| COc1cc(OC)cc(N2C(N)=C(c3nc4ccccc4[nH]3)C(=O)C2(C)C)c1 [compound 2] | – | – | < 10000 | 100 to 1000 |
| COc1cc(OC)cc(N2C(N)=C(c3nc4ccccc4[nH]3)C(=O)C2CCNC(=O)c2ccccc2)c1 (centres unmarked) [compound 236] | < 10000 | < 100 | – | – |
| CC[C@H]1C(=O)C(c2nc3ccccc3[nH]2)=C(N)N1c1cc(OC)cc(OC)c1 [compound 96] | – | – | < 10000 | < 100 |
| COc1cc(OC)cc(N2CC(=O)C(c3cn4ccccc4n3)=C2N)c1 [compound 41] | – | – | – | 1000 to 10000 |
| COCCC1(C)C(=O)C(c2nc3ccccc3[nH]2)=C(N)N1c1cc(OC)cc(OC)c1 (centres unmarked) [compound 219] | – | 100 to 1000 | – | – |
| CNc1c(-c2nc3ccccc3[nH]2)c(=O)n(CCCO)n1-c1cc(OC)cc(OC)c1 [compound 267] | – | < 100 | – | – |
| CNC1=C(c2nc3ccccc3[nH]2)C(=O)C(C)(C)N1c1cc(OC)cc(OC)c1 [compound 79] | – | – | < 10000 | < 100 |
| COc1cc(OC)cc(N2C(N)=C(c3nc4ccccc4[nH]3)C(=O)C2CN)c1 (centres unmarked) [compound 70] | – | – | – | 100 to 1000 |
| CCNC1=C(c2nc3ccccc3[nH]2)C(=O)C(CC)N1c1cc(OC)cc(OC)c1 (centres unmarked) [compound 154] | – | – | < 10000 | 100 to 1000 |
| CCNC1=C(c2nc3ccccc3[nH]2)C(=O)[C@@H](CC)N1c1cc(OC)cc(OC)c1 [compound 186] | – | – | – | 100 to 1000 |

| SMILES | EC50 (mu-opioid receptor [1]; [3]) [nM] | EC50 (mu-opioid receptor [2]; [3]) [nM] | EC50 (mu-opioid receptor [1]; class symbols) [nM] | EC50 (mu-opioid receptor [2]; class symbols) [nM] |
| --- | --- | --- | --- | --- |
| Cc1ccc(C)c(N2CC(=O)C(c3nc4c(C)cccc4[nH]3)=C2N)c1 [compound 17] | – | – | – | 1000 to 10000 |
| COCC1C(=O)C(c2nc3ccccc3[nH]2)=C(N)N1c1cc(OC)cc(OC)c1 (centres unmarked) [compound 68] | – | – | – | 100 to 1000 |
| CNC1=C(c2nc3ccccc3[nH]2)C(=O)C(C)(Cc2ccco2)N1c1cc(OC)cc(OC)c1 (centres unmarked) [compound 280] | – | 100 to 1000 | – | – |
| CNC1=C(c2nc3ccccc3[nH]2)C(=O)[C@@](C)(CCNC(C)=O)N1c1cc(OC)cc(OC)c1 [compound 304] | – | < 100 | – | – |
| CNC1=C(c2nc3ccccc3[nH]2)C(=O)C(CNC(=O)COC)N1c1cc(OC)cc(OC)c1 (centres unmarked) [compound 289] | – | < 100 | – | – |
| CNC1=C(c2nc3ccccc3[nH]2)C(=O)[C@]2(CCOC2)N1c1cc(OC)cc(OC)c1 [compound 213] | < 10000 | < 100 | – | – |
| CNC1=C(c2nc3ccccc3[nH]2)C(=O)C(C)(CCOC)N1c1cc(OC)cc(OC)c1 (centres unmarked) [compound 220] | – | < 100 | – | – |
| Cc1cc(C)cc(N2C(N)=C(c3nc4ccccc4[nH]3)C(=O)C2(C)C)c1 [compound 102] | – | – | – | 100 to 1000 |
| COc1cc(OC)cc(N2C(N)=C(c3nc4ccccc4[nH]3)C(=O)C2CCNC(C)=O)c1 (centres unmarked) [compound 233] | < 10000 | < 100 | – | – |
| COc1cc(OC)cc(N2C(NC(C)C)=C(c3nc4ccccc4[nH]3)C(=O)C2(C)C)c1 [compound 90] | – | – | < 10000 | 100 to 1000 |
| COc1cc(OC)cc(N2C(N)=C(c3nc4ccccc4[nH]3)C(=O)C2(C)c2cccc(O)c2)c1 (centres unmarked) [compound 210] | – | 1000 to 10000 | – | – |
| CNC1=C(c2nc3ccccc3[nH]2)C(=O)C(C)(CCO)N1c1cc(OC)cc(OC)c1 (centres unmarked) [compound 217] | – | < 100 | – | – |
| COc1cc(OC)cc(N2C(N)=C(c3nc4ccccc4[nH]3)C(=O)C2CCCCN)c1 (centres unmarked) [compound 204] | – | 100 to 1000 | – | – |
| COc1cc(OC)cc(N2CC(=O)C(c3nc4cc(C)ccc4[nH]3)=C2N)c1 [compound 6] | – | – | – | 1000 to 10000 |
| CNC1=C(c2nc3ccccc3[nH]2)C(=O)C(C)(C)N1c1ccc(C)cc1C [compound 104] | – | – | – | 1000 to 10000 |
| CC1(C)C(=O)C(c2nc3ccccc3[nH]2)=C(N)N1c1cc(Cl)cc(Cl)c1 [compound 159] | – | – | – | 1000 to 10000 |
| CNC1=C(c2nc3ccccc3[nH]2)C(=O)[C@](C)(CO)N1c1cc(OC)cc(OC)c1 [compound 212] | – | < 100 | – | – |
| CNC1=C(c2nc3ccccc3[nH]2)C(=O)[C@H](CNC(=O)COC)N1c1cc(OC)cc(OC)c1 [compound 315] | – | < 100 | – | – |
| CNC1=C(c2nc3ccccc3[nH]2)C(=O)C(C)(C)N1c1cc(O)cc(OC)c1 [compound 129] | – | – | – | 100 to 1000 |
| CNC1=C(c2nc3ccccc3[nH]2)C(=O)[C@@](C)(CNC(C)=O)N1c1cc(OC)cc(OC)c1 [compound 308] | < 10000 | < 100 | – | – |
| CCNC1=C(c2nc3ccccc3[nH]2)C(=O)CN1c1cc(OC)cc(OC)c1 [compound 88] | – | – | < 10000 | 100 to 1000 |

— US9580409B2, “Modulators of opioid receptors and methods of use thereof” (priority 2011, dated 2017)
